Test results reported in the supplement of paper PMC10733146.

How the values were obtained:
Experiment in all cases: viability relative to DMSO control (fraction); higher = less drug effect (more viable cells)
Conditions in all cases: 48 h
Duvelisib = compound: C[C@H](Nc1ncnc2nc[nH]c12)c1cc2cccc(Cl)c2c(=O)n1-c1ccccc1 [Duvelisib]
Summary of the method: (§1)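 Viability was quantified by CellTiter-Glo luminescence and related to the median of 16 inner DMSO wells. Before that, primary mononuclear tumour cells, fresh or cryopreserved and Ficoll-isolated from blood or bone marrow or prepared from processed lymph node, were plated at 4 × 10^4 cells per well in 384-well plates containing pre-plated compounds at five concentrations, one well each. Plates were incubated in RPMI-1640 with penicillin/streptomycin, L-glutamine and human serum at 37 °C and 5% CO2 for 48 h.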

Pomalidomide = compound: Nc1cccc2c1C(=O)N(C1CCC(=O)NC1=O)C2=O [Pomalidomide]
Summary of the method: as §1

Vindesine = compound: CC[C@]1(O)C[C@@H]2CN(CCc3c([nH]c4ccccc34)[C@@](C(=O)OC)(c3cc4c(cc3OC)N(C)[C@H]3[C@@](O)(C(N)=O)[C@H](O)[C@]5(CC)C=CCN6CC[C@]43[C@@H]65)C2)C1 [Vindesine]
Summary of the method: as §1

[1] = compound: CCc1ccc(/C=C2/SC(=S)NC2=O)cc1
Summary of the method: as §1

Venetoclax = compound: CC1(C)CCC(CN2CCN(c3ccc(C(=O)NS(=O)(=O)c4ccc(NCC5CCOCC5)c([N+](=O)[O-])c4)c(Oc4cnc5[nH]ccc5c4)c3)CC2)=C(c2ccc(Cl)cc2)C1 [Venetoclax]
Summary of the method: as §1

I-BET-762 = compound: CCNC(=O)C[C@@H]1N=C(c2ccc(Cl)cc2)c2cc(OC)ccc2-n2c(C)nnc21 [I-BET-762]
Summary of the method: as §1

[2] = compound: C[C@H](NC(=O)CCC(F)(F)F)C(=O)N[C@@H]1C(=O)N(CCO)c2ncccc2-c2ccccc21
Summary of the method: as §1

Thalidomide = compound: O=C1CCC(N2C(=O)c3ccccc3C2=O)C(=O)N1 [Thalidomide]
Summary of the method: as §1

Filgotinib = compound: O=C(Nc1nc2cccc(-c3ccc(CN4CCS(=O)(=O)CC4)cc3)n2n1)C1CC1 [Filgotinib]
Summary of the method: as §1

[3] = compound: C[C@H]1C[C@@H](n2c(Nc3ccc(OC(F)(F)F)cc3)nc3cc(CCC(=O)O)ccc32)CC(C)(C)C1
Summary of the method: as §1

Idasanutlin (RS7388) = compound: COc1cc(C(=O)O)ccc1NC(=O)[C@@H]1N[C@@H](CC(C)(C)C)[C@](C#N)(c2ccc(Cl)cc2F)[C@H]1c1cccc(Cl)c1F [Idasanutlin (RS7388)]
Summary of the method: as §1

[4] = compound: O=C(Nc1ccc2[nH]nc(-c3ccncc3)c2c1)[C@@H]1CCN(CC(=O)N2CCN(c3ccc(-c4ncccn4)cc3)CC2)C1
Summary of the method: as §1

Chlorambucil = compound: O=C(O)CCCc1ccc(N(CCCl)CCCl)cc1 [Chlorambucil]
Summary of the method: as §1

[5] = compound: O=C(NO)c1cccc(C(=O)NCCc2ccccc2)c1
Summary of the method: as §1

Navitoclax = compound: CC1(C)CCC(c2ccc(Cl)cc2)=C(CN2CCN(c3ccc(C(=O)NS(=O)(=O)c4ccc(N[C@H](CCN5CCOCC5)CSc5ccccc5)c(S(=O)(=O)C(F)(F)F)c4)cc3)CC2)C1 [Navitoclax]
Summary of the method: as §1

primary AML patient cells (S012)
viability (Duvelisib; 0.0016 µM): 1.01
viability (Duvelisib; 0.008 µM): 0.975
viability (Duvelisib; 0.04 µM): 0.996
viability (Duvelisib; 0.2 µM): 1.02
viability (Duvelisib; 1 µM): 0.896
viability (Pomalidomide; 0.0032 µM): 0.829
viability (Pomalidomide; 0.016 µM): 0.981
viability (Pomalidomide; 0.08 µM): 0.973
viability (Pomalidomide; 0.4 µM): 0.821
viability (Pomalidomide; 2 µM): 1
viability (Vindesine; 0.016 µM): 0.972
viability (Vindesine; 0.08 µM): 0.925
viability (Vindesine; 0.4 µM): 0.852
viability (Vindesine; 2 µM): 0.853
viability (Vindesine; 10 µM): 0.904
viability ([1]; 0.024 µM): 1.03
viability ([1]; 0.12 µM): 0.873
viability ([1]; 0.6 µM): 1.03
viability ([1]; 3 µM): 0.984
viability ([1]; 15 µM): 0.878
viability (Venetoclax; 0.00064 µM): 1.01
viability (Venetoclax; 0.0032 µM): 1.05
viability (Venetoclax; 0.016 µM): 1.02
viability (Venetoclax; 0.08 µM): 1
viability (Venetoclax; 0.4 µM): 1.03
viability (I-BET-762; 0.008 µM): 1.05
viability (I-BET-762; 0.04 µM): 0.998
viability (I-BET-762; 0.2 µM): 0.926
viability (I-BET-762; 1 µM): 0.617
viability (I-BET-762; 5 µM): 0.426
viability ([2]; 0.016 µM): 1.02
viability ([2]; 0.08 µM): 1.06
viability ([2]; 0.4 µM): 1.01
viability ([2]; 2 µM): 1.04
viability ([2]; 10 µM): 0.998
viability (Thalidomide; 0.032 µM): 1.01
viability (Thalidomide; 0.16 µM): 0.975
viability (Thalidomide; 0.8 µM): 0.965
viability (Thalidomide; 4 µM): 0.986
viability (Thalidomide; 20 µM): 0.989
viability (Filgotinib; 0.024 µM): 0.966
viability (Filgotinib; 0.12 µM): 1.1
viability (Filgotinib; 0.6 µM): 1.01
viability (Filgotinib; 3 µM): 1.04
viability (Filgotinib; 15 µM): 0.284
viability ([3]; 0.024 µM): 0.976
viability ([3]; 0.12 µM): 1.03
viability ([3]; 0.6 µM): 1.11
viability ([3]; 3 µM): 1.01
viability ([3]; 15 µM): 1.08
viability (Idasanutlin (RS7388); 0.032 µM): 1.03
viability (Idasanutlin (RS7388); 0.16 µM): 0.987
viability (Idasanutlin (RS7388); 0.8 µM): 0.991
viability (Idasanutlin (RS7388); 4 µM): 0.982
viability (Idasanutlin (RS7388); 20 µM): 1.06
viability ([4]; 0.008 µM): 1.08
viability ([4]; 0.04 µM): 0.99
viability ([4]; 0.2 µM): 0.961
viability ([4]; 1 µM): 0.612
viability ([4]; 5 µM): 0.363
viability (Chlorambucil; 0.032 µM): 1.06
viability (Chlorambucil; 0.16 µM): 0.919
viability (Chlorambucil; 0.8 µM): 1.01
viability (Chlorambucil; 4 µM): 1.02
viability (Chlorambucil; 20 µM): 0.832
viability ([5]; 0.024 µM): 1.06
viability ([5]; 0.12 µM): 1.08
viability ([5]; 0.6 µM): 1.07
viability ([5]; 3 µM): 1.08
viability ([5]; 15 µM): 1.17
viability (Navitoclax; 0.0032 µM): 1.03
viability (Navitoclax; 0.016 µM): 1.09
viability (Navitoclax; 0.08 µM): 1.03
viability (Navitoclax; 0.4 µM): 1.05
viability (Navitoclax; 2 µM): 1.03

primary DLBCL patient cells (S076)
viability (Duvelisib; 0.0016 µM): 0.884
viability (Duvelisib; 0.008 µM): 0.839
viability (Duvelisib; 0.04 µM): 0.732
viability (Duvelisib; 0.2 µM): 0.718
viability (Duvelisib; 1 µM): 0.611
viability (Pomalidomide; 0.0032 µM): 0.926
viability (Pomalidomide; 0.016 µM): 1.07
viability (Pomalidomide; 0.08 µM): 1.08
viability (Pomalidomide; 0.4 µM): 0.84
viability (Pomalidomide; 2 µM): 1.05
viability ([1]; 0.024 µM): 0.949
viability ([1]; 0.12 µM): 0.942
viability ([1]; 0.6 µM): 1.07
viability ([1]; 3 µM): 0.995
viability ([1]; 15 µM): 0.942
viability (Venetoclax; 0.00064 µM): 1.09
viability (Venetoclax; 0.0032 µM): 1.01
viability (Venetoclax; 0.016 µM): 0.622
viability (Venetoclax; 0.08 µM): 0.451
viability (Venetoclax; 0.4 µM): 0.374
viability (I-BET-762; 0.008 µM): 1.08
viability (I-BET-762; 0.04 µM): 1.04
viability (I-BET-762; 0.2 µM): 0.94
viability (I-BET-762; 1 µM): 0.82
viability (I-BET-762; 5 µM): 0.738
viability (Thalidomide; 0.032 µM): 1.06
viability (Thalidomide; 0.16 µM): 0.993
viability (Thalidomide; 0.8 µM): 1.09
viability (Thalidomide; 4 µM): 1.11
viability (Thalidomide; 20 µM): 1.06
viability (Filgotinib; 0.024 µM): 1.02
viability (Filgotinib; 0.12 µM): 1.03
viability (Filgotinib; 0.6 µM): 0.966
viability (Filgotinib; 3 µM): 0.911
viability (Filgotinib; 15 µM): 0.348
viability ([4]; 0.008 µM): 0.991
viability ([4]; 0.04 µM): 0.912
viability ([4]; 0.2 µM): 0.796
viability ([4]; 1 µM): 0.694
viability ([4]; 5 µM): 0.622
viability (Chlorambucil; 0.032 µM): 1.02
viability (Chlorambucil; 0.16 µM): 0.886
viability (Chlorambucil; 0.8 µM): 1.03
viability (Chlorambucil; 4 µM): 0.858
viability (Chlorambucil; 20 µM): 0.431
viability ([5]; 0.024 µM): 1.15
viability ([5]; 0.12 µM): 1.12
viability ([5]; 0.6 µM): 1.09
viability ([5]; 3 µM): 1.13
viability ([5]; 15 µM): 1.17
viability (Navitoclax; 0.0032 µM): 1.07
viability (Navitoclax; 0.016 µM): 0.95
viability (Navitoclax; 0.08 µM): 0.689
viability (Navitoclax; 0.4 µM): 0.279
viability (Navitoclax; 2 µM): 0.15

primary AML patient cells (S025)
viability (Duvelisib; 0.0016 µM): 1.06
viability (Duvelisib; 0.008 µM): 1.05
viability (Duvelisib; 0.04 µM): 0.917
viability (Duvelisib; 0.2 µM): 0.864
viability (Duvelisib; 1 µM): 0.77
viability (Vindesine; 0.016 µM): 0.764
viability (Vindesine; 0.08 µM): 0.85
viability (Vindesine; 0.4 µM): 1.02
viability (Vindesine; 2 µM): 0.913
viability (Vindesine; 10 µM): 0.971
viability ([1]; 0.024 µM): 1
viability ([1]; 0.12 µM): 0.969
viability ([1]; 0.6 µM): 0.956
viability ([1]; 3 µM): 1.01
viability ([1]; 15 µM): 0.98
viability (Venetoclax; 0.00064 µM): 0.975
viability (Venetoclax; 0.0032 µM): 0.762
viability (Venetoclax; 0.016 µM): 0.458
viability (Venetoclax; 0.08 µM): 0.277
viability (Venetoclax; 0.4 µM): 0.201
viability (I-BET-762; 0.008 µM): 0.928
viability (I-BET-762; 0.04 µM): 1.03
viability (I-BET-762; 0.2 µM): 1.03
viability (I-BET-762; 1 µM): 0.817
viability (I-BET-762; 5 µM): 0.705
viability ([2]; 0.016 µM): 0.997
viability ([2]; 0.08 µM): 1.11
viability ([2]; 0.4 µM): 1.01
viability ([2]; 2 µM): 1.07
viability ([2]; 10 µM): 0.924
viability (Filgotinib; 0.024 µM): 0.973
viability (Filgotinib; 0.12 µM): 0.971
viability (Filgotinib; 0.6 µM): 0.899
viability (Filgotinib; 3 µM): 0.904
viability (Filgotinib; 15 µM): 0.503
viability ([3]; 0.024 µM): 0.95
viability ([3]; 0.12 µM): 0.877
viability ([3]; 0.6 µM): 0.941
viability ([3]; 3 µM): 0.768
viability ([3]; 15 µM): 0.817
viability (Idasanutlin (RS7388); 0.032 µM): 0.755
viability (Idasanutlin (RS7388); 0.16 µM): 0.558
viability (Idasanutlin (RS7388); 0.8 µM): 0.264
viability (Idasanutlin (RS7388); 4 µM): 0.137
viability (Idasanutlin (RS7388); 20 µM): 0.0965
viability ([4]; 0.008 µM): 0.824
viability ([4]; 0.04 µM): 0.707
viability ([4]; 0.2 µM): 0.604
viability ([4]; 1 µM): 0.521
viability ([4]; 5 µM): 0.468
viability (Chlorambucil; 0.032 µM): 0.985
viability (Chlorambucil; 0.16 µM): 0.961
viability (Chlorambucil; 0.8 µM): 0.96
viability (Chlorambucil; 4 µM): 0.674
viability (Chlorambucil; 20 µM): 0.339
viability ([5]; 0.024 µM): 0.917
viability ([5]; 0.12 µM): 1.04
viability ([5]; 0.6 µM): 0.945
viability ([5]; 3 µM): 0.979
viability ([5]; 15 µM): 1.05
viability (Navitoclax; 0.0032 µM): 1.19
viability (Navitoclax; 0.016 µM): 0.89
viability (Navitoclax; 0.08 µM): 0.526
viability (Navitoclax; 0.4 µM): 0.218
viability (Navitoclax; 2 µM): 0.123
